Assay results from patent publication US8754054B2, “Antibacterial compounds, methods of making them, and uses thereof” (Albany Molecular Research, Inc., priority 2010, dated 2014).
Converted amounts (≈) assume the structure as drawn. Structures can show the parent of a compound that is named as a salt.

System: MRSA 43300
Assay: Antibacterial activity, NCCLS dilution method (Table 9)
Format: cell-based, S. aureus
Conditions: Staphylococcus aureus, MRSA, MRSA 43300; dilution method; labels marked a tested as a mixture of diastereomers; read-out: MRSA 43300 MIC
Text: NCCLS standards for antimicrobial susceptibility testing using the dilution method were followed. See: Performance Standards for Antimicrobial Susceptibility Testing; Fourteenth Informational Supplement. NCCLS Document M100-S14 (ISBN 1-56238-516-X), 2004. NCCLS, 940 West Valley Road, Suite 1400, Wayne, Pa. 19087-1898 USA, 2004; Methods for Dilution Antimicrobial Susceptibility Tests for Bacteria that Grow Aerobically; Approved Standard—Sixth Edition. NCCLS document M7-A6 (IBSBN 1-56238-486-4), NCCLS, 940 West Valley Road, Suite 1400, Wayne, Pa. 19087-1898 USA, 2003, which are hereby incorporated by reference in their entirety.

| SMILES | MIC |
| --- | --- |
| CO[C@@H]1[C@@H](O)[C@@H](OC)C(NC2=CC(=O)c3c(cc4c(c3O)C(=O)[C@]3(OC)[C@H](O)Cc5cc(C)c(C(=O)N(C)C)c(O)c5[C@]3(O)C4=O)C2=O)O[C@H]1C (mixture of isomers) [Example 16, (6R,6aS,14aR)-1,6,8,14a-Tetrahydroxy-11-((3R,4R,5R,6S)-4-hydroxy-3,5-dimethoxy-6-methyltetrahydro-2H-pyran-2-ylamino)-6a-methoxy-N,N,3-trimethyl-7,9,12,14-tetraoxo-5,6,6a,7,9,12,14,14a-octahydrobenzo[a]tetracene-2-carboxamide] | 16 µg/mL (≈ 22.5 µM) |
| C/N=C1\C=C(N[C@H]2O[C@@H](C)[C@H](OC)[C@@H](O)[C@H]2OC)C(=O)c2cc3c(c(O)c21)C(=O)[C@]1(OC)[C@H](O)Cc2cc(C)c(C(=O)OC)c(O)c2[C@]1(O)C3=O [Example 44, (6R,6aS,14aR,E)-Methyl 1,6,8,14a-tetrahydroxy-11-((2S,3R,4R,5R,6S)-4-hydroxy-3,5-dimethoxy-6-methyltetrahydro-2H-pyran-2-ylamino)-6a-methoxy-3-methyl-9-(methylimino)-7,12,14-trioxo-5,6,6a,7,9,12,14,14a-octahydrobenzo[a]tetracene-2-carboxylate] | 1 to 2 µg/mL (≈ 1.41 to 2.81 µM) |
| COC(=O)COc1c(C(=O)OC)c(C)cc2c1[C@]1(O)C(=O)c3cc4c(c(O)c3C(=O)[C@]1(OC)[C@H](O)C2)C(=O)C=C(N[C@H]1O[C@@H](C)[C@H](OC)[C@@H](O)[C@H]1OC)C4=O [Example 6, (6R,6aS,14aR)-Methyl 6,8,14a-trihydroxy-11-((2S,3R,4R,5R,6S)-4-hydroxy-3,5-dimethoxy-6-methyltetrahydro-2H-pyran-2-ylamino)-6a-methoxy-1-(2-methoxy-2-oxoethoxy)-3-methyl-7,9,12,14-tetraoxo-5,6,6a,7,9,12,14,14a-octahydrobenzo[a]tetracene-2-carboxylate] | 0.12 µg/mL (≈ 0.156 µM) |
| COC(=O)c1c(C)cc2c(c1O)[C@]1(O)C(=O)c3cc4c(c(O)c3C(=O)[C@]1(OC)[C@H](O)C2)C(=O)C=C(N[C@H]1O[C@@H](C)[C@H](OC)[C@@H](O)[C@H]1OC)C4(O)c1ccc(F)cc1 (single isomer, unassigned) [Example 58] | 8 to 16 µg/mL (≈ 10.1 to 20.2 µM) |
| COC(=O)c1c(C)cc2c(c1O)[C@]1(O)C(=O)c3cc4c(c(O)c3C(=O)[C@]1(OC)/C(=N/O)C2)C(=O)C=C(N[C@H]1O[C@@H](C)[C@H](OC)/C(=N/O)[C@H]1OC)C4=O [Example 53, (6aS,14aR,E)-Methyl 1,8,14a-trihydroxy-6-(hydroxyimino)-11-((2S,3R,5R,6S,Z)-4-(hydroxyimino)-3,5-dimethoxy-6-methyltetrahydro-2H-pyran-2-ylamino)-6a-methoxy-3-methyl-7,9,12,14-tetraoxo-5,6,6a,7,9,12,14,14a-octahydrobenzo[a]tetracene-2-carboxylate] | 0.12 µg/mL (≈ 0.166 µM) |
| COC(=O)c1c(C)cc2c(c1OCC(=O)O)[C@]1(O)C(=O)c3cc4c(c(O)c3C(=O)[C@]1(OC)[C@H](O)C2)C(=O)C=C(NC1O[C@@H](C)[C@H](OC)[C@@H](O)[C@H]1OC)C4=O (stereo partly drawn) [Example 9, 2-((6R,6aS,14aR)-6,8,14a-Trihydroxy-11-((3R,4R,5R,6S)-4-hydroxy-3,5-dimethoxy-6-methyltetrahydro-2H-pyran-2-ylamino)-6a-methoxy-2-(methoxycarbonyl)-3-methyl-7,9,12,14-tetraoxo-5,6,6a,7,9,12,14,14a-octahydrobenzo[a]tetracen-1-yloxy)acetic acid] | 32 µg/mL (≈ 42.3 µM) |
| CO[C@@H]1[C@@H](O)[C@@H](OC)[C@@H](NC2=CC(=O)c3c(cc4c(c3O)C(=O)[C@]3(OC)[C@H](O)Cc5cc(C)c(C(=O)OCCCc6ccccc6)c(O)c5[C@]3(O)C4=O)C2=O)O[C@H]1C [Example 33, (6R,6aS,14aR)-3-Phenylpropyl 1,6,8,14a-tetrahydroxy-11-((2S,3R,4R,5R,6S)-4-hydroxy-3,5-dimethoxy-6-methyltetrahydro-2H-pyran-2-ylamino)-6a-methoxy-3-methyl-7,9,12,14-tetraoxo-5,6,6a,7,9,12,14,14a-octahydrobenzo[a]tetracene-2-carboxylate] | 1 to 2 µg/mL (≈ 1.25 to 2.49 µM) |
| COC(=O)c1c(C)cc2c(c1O)[C@]1(O)C(=O)c3cc4c5c(nc(=O)oc5c3C(=O)[C@]1(OC)[C@H](O)C2)C=C(N[C@H]1O[C@@H](C)[C@H](OC)[C@@H](O)[C@H]1OC)C4=O [Example 60, (8aR,12R,12aS)-8a,12-Dihydroxy-5-((2S,3R,4R,5R,6S)-4-hydroxy-3,5-dimethoxy-6-methyltetrahydro-2H-pyran-2-ylamino)-12a-methoxy-8a,9,10,11,12,12a-hexahydro-(1-hydroxy-2-methoxycarbonyl-3-methylbenzo) [9,10-a]tetraceno[1,12-de][1,3]oxazine-2,6,8,13-tetraone] | 0.12 to 0.5 µg/mL (≈ 0.166 to 0.692 µM) |
| COC(=O)c1c(C)c(Br)c2c(c1O)[C@]1(O)C(=O)c3cc4c(c(O)c3C(=O)[C@]1(OC)[C@H](O)C2)C(=O)C(Br)=C(N[C@H]1O[C@@H](C)[C@H](OC)[C@@H](O)[C@H]1OC)C4=O [Example 39, (6R,6aS,14aR)-Methyl 4,10-dibromo-1,6,8,14a-tetrahydroxy-11-((2S,3R,4R,5R,6S)-4-hydroxy-3,5-dimethoxy-6-methyltetrahydro-2H-pyran-2-ylamino)-6a-methoxy-3-methyl-7,9,12,14-tetraoxo-5,6,6a,7,9,12,14,14a-octahydrobenzo[a]tetracene-2-carboxylate] | 2 µg/mL (≈ 2.34 µM) |
| COC(=O)c1c(C)cc2c(c1OCc1ccccc1)[C@]1(O)C(=O)c3cc4c(c(O)c3C(=O)[C@]1(OC)[C@H](O)C2)C(=O)C=C(N[C@H]1O[C@@H](C)[C@H](OC)[C@@H](O)[C@H]1OC)C4=O [Example 7, (6R,6aS,14aR)-Methyl 1-(benzyloxy)-6,8,14a-trihydroxy-11-((2S,3R,4R,5R,6S)-4-hydroxy-3,5-dimethoxy-6-methyltetrahydro-2H-pyran-2-ylamino)-6a-methoxy-3-methyl-7,9,12,14-tetraoxo-5,6,6a,7,9,12,14,14a-octahydrobenzo[a]tetracene-2-carboxylate] | 0.12 µg/mL (≈ 0.152 µM) |
| CO[C@@H]1[C@@H](O)[C@@H](OC)C(NC2=CC(=O)c3c(cc4c(c3O)C(=O)[C@]3(OC)[C@H](O)Cc5cc(C)c(C(=O)NCc6ccc(F)cc6)c(O)c5[C@]3(O)C4=O)C2=O)O[C@H]1C (mixture of isomers) [Example 26, (6R,6aS,14aR)—N-(4-Fluorobenzyl)-1,6,8,14a-tetrahydroxy-11-((3R,4R,5R,6S)-4-hydroxy-3,5-dimethoxy-6-methyltetrahydro-2H-pyran-2-ylamino)-6a-methoxy-3-methyl-7,9,12,14-tetraoxo-5,6,6a,7,9,12,14,14a-octahydrobenzo[a]tetracene-2-carboxamide] | 0.5 µg/mL (≈ 0.632 µM) |
| CCOC(=O)c1c(C)cc2c(c1O)[C@]1(O)C(=O)c3cc4c(c(O)c3C(=O)[C@]1(OC)[C@H](O)C2)C(=O)C=C(N[C@H]1O[C@@H](C)[C@H](OC)[C@@H](O)[C@H]1OC)C4=O [Example 34, (6R,6aS,14aR)-Ethyl 1,6,8,14a-tetrahydroxy-11-((2S,3R,4R,5R,6S)-4-hydroxy-3,5-dimethoxy-6-methyltetrahydro-2H-pyran-2-ylamino)-6a-methoxy-3-methyl-7,9,12,14-tetraoxo-5,6,6a,7,9,12,14,14a-octahydrobenzo[a]tetracene-2-carboxylate] | 0.008 to 0.016 µg/mL (≈ 0.0112 to 0.0225 µM) |
| COCC/N=C1\C=C(N[C@H]2O[C@@H](C)[C@H](OC)[C@@H](O)[C@H]2OC)C(=O)c2cc3c(c(O)c21)C(=O)[C@]1(OC)[C@H](O)Cc2cc(C)c(C(=O)OC)c(O)c2[C@]1(O)C3=O [Example 46, (6R,6aS,14aR,E)-methyl 1,6,8,14a-tetrahydroxy-11-((2S,3R,4R,5R,6S)-4-hydroxy-3,5-dimethoxy-6-methyltetrahydro-2H-pyran-2-ylamino)-6a-methoxy-9-(2-methoxyethylimino)-3-methyl-7,12,14-trioxo-5,6,6a,7,9,12,14,14a-octahydrobenzo[a]tetracene-2-carboxylate] | 1 µg/mL (≈ 1.32 µM) |
| CO[C@@H]1[C@@H](O)[C@@H](OC)[C@@H](NC2=CC(=O)c3c(cc4c(c3O)C(=O)[C@]3(OC)[C@H](O)Cc5cc(C)c(C(=O)OCC(C)C)c(O)c5[C@]3(O)C4=O)C2=O)O[C@H]1C [Example 36] | 0.12 µg/mL (≈ 0.162 µM) |
| COC(=O)c1c(C)cc2c(c1O)[C@]1(O)C(=O)c3cc4c(c(O)c3C(=O)[C@]1(OC)[C@H](O)C2)C(=O)C=C(N[C@H]1O[C@@H](C)[C@H](OC)/C(=N/OCC(=O)O)[C@H]1OC)C4=O [Example 51, 2-((Z)-((2S,3R,5R,6S)-3,5-Dimethoxy-2-methyl-6-((6R,6aS,14aR)-1,6,8,14a-tetrahydroxy-6a-methoxy-2-(methoxycarbonyl)-3-methyl-7,9,12,14-tetraoxo-5,6,6a,7,9,12,14,14a-octahydrobenzo[a]tetracen-11-ylamino)-2H-pyran-4(3H,5H,6H)-ylidene)aminooxy)acetic acid] | 8 µg/mL (≈ 10.4 µM) |

Same assay, conditions: Staphylococcus aureus, MRSA, read-out: MRSA 43300 MIC

| SMILES | MIC |
| --- | --- |
| CO[C@@H]1[C@@H](O)[C@@H](OC)C(NC2=CC(=O)c3c(cc4c(c3O)C(=O)[C@]3(OC)[C@H](O)Cc5cc(C)c(C(=O)NCc6cccnc6)c(O)c5[C@]3(O)C4=O)C2=O)O[C@H]1C (mixture of isomers) [Example 17, (6R,6aS,14aR)-1,6,8,14a-Tetrahydroxy-11-((3R,4R,5R,6S)-4-hydroxy-3,5-dimethoxy-6-methyltetrahydro-2H-pyran-2-ylamino)-6a-methoxy-3-methyl-7,9,12,14-tetraoxo-N-(pyridin-3-ylmethyl)-5,6,6a,7,9,12,14,14a-octahydrobenzo[a]tetracene-2-carboxamide hydrochloride] | 32 µg/mL |
